Measurements from patent publication US9845322B2 (Hoffmann-La Roche Inc., priority 2016, dated 2017).
Where two headings read alike, the source gives them in different places.

Test system: HBsAg secretion in HepG2.2.15 cells
Experiment: HBsAg assay (chemiluminescence immunoassay of secreted HBsAg in culture supernatant)
Type: cell-based, HBV
Conditions: concentration at which HBsAg secretion was reduced by 50% compared to the no drug control, read-out: IC50 (HBsAg assay)
In short: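 IC50 taken from dose-response curves as the concentration halving secreted HBsAg relative to DMSO control. Measured by chemiluminescence immunoassay of culture supernatant from constitutively HBV-expressing HepG2.2.15 cells, seeded at 1.5×10^4/well in duplicate and exposed to three-fold serial compound dilutions at 1% final DMSO.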

[1] = Hepatitis B virus, HepG2.2.15, HepG2.2.15 cells

CC1c2cnc(-c3ncccn3)nc2CCN1c1cc(F)c(F)c(OCC2CCCO2)c1 (stereo not drawn) [Example 122, 6-[3,4-difluoro-5-(tetrahydrofuran-2-ylmethoxy)phenyl]-(5R/S)-methyl-2-pyrimidin-2-yl-7,8-dihydro-5H-pyrido[4,3-d]pyrimidine] was tested, and the IC50 (HepG2.2.15 cells) was 16 nM.
COc1cc(Cl)nc(N2CCc3nc(-c4ncccn4)ncc3C2C)c1 (stereo not drawn) [Example 126] was tested, and the IC50 [1] was 8 nM.
In the case of COc1cc(F)nc(N2CCc3nc(-c4ncccn4)ncc3C2C)c1 (stereo not drawn) [Example 127, 6-(6-Fluoro-4-methoxy-2-pyridyl)-5-methyl-2-pyrimidin-2-yl-7,8-dihydro-5H-pyrido[4,3-d]pyrimidine], the IC50 (HepG2.2.15 cells) is reported as 24 nM.
COc1cc(N2CCc3nc(-c4ncccn4)ncc3C2C)nc(F)c1I (stereo not drawn) [Example 128, 6-(6-fluoro-5-iodo-4-methoxy-2-pyridyl)-5-methyl-2-pyrimidin-2-yl-7,8-dihydro-5H-pyrido[4,3-d]pyrimidine] was tested, and the IC50 [1] was 5 nM.
Work on COc1cc(N2CCc3nc(-c4ncccn4)ncc3C2C)cc(F)n1 (stereo not drawn) [Example 129, 6-(2-fluoro-6-methoxy-4-pyridyl)-5-methyl-2-pyrimidin-2-yl-7,8-dihydro-5H-pyrido[4,3-d]pyrimidine] yielded an IC50 [1] of 18 nM.
Work on CC1c2cnc(-c3ncccn3)nc2CCN1c1cc(F)c(F)c(OCC2CN(C(=O)OC(C)(C)C)C2)c1 (stereo not drawn) [Example 132, tert-butyl 3-[[2,3-difluoro-5-(5-methyl-2-pyrimidin-2-yl-7,8-dihydro-5H-pyrido[4,3-d]pyrimidin-6-yl)phenoxy]methyl]azetidine-1-carboxylate] yielded an IC50 [1] of 30 nM.
With CC1c2cnc(-c3ncccn3)nc2CCN1c1cc(F)cc(OC(F)(F)F)c1 (stereo not drawn) [Example 133, 6-[3-fluoro-5-(trifluoromethoxy)phenyl]-5-methyl-2-pyrimidin-2-yl-7,8-dihydro-5H-pyrido[4,3-d]pyrimidine] the IC50 [1] was 1760 nM.
Cc1cc(F)cc(N2CCc3nc(-c4ncccn4)ncc3C2C)c1 (stereo not drawn) [Example 134, 6-(3-fluoro-5-methyl-phenyl)-5-methyl-2-pyrimidin-2-yl-7,8-dihydro-5H-pyrido[4,3-d]pyrimidine] showed an IC50 [1] of 48 nM.
COc1cc(F)cc(N2CCc3cc(-c4ncccn4)ncc3C2C)c1 (stereo not drawn) [Example 135, 2-(3-fluoro-5-methoxy-phenyl)-1-methyl-6-pyrimidin-2-yl-3,4-dihydro-1H-2,7-naphthyridine] was tested, and the IC50 [1] was 15 nM.
With COc1cc(N2CCc3cc(-c4ncccn4)ncc3C2C)cc(F)c1-c1ccncc1 (stereo not drawn) [Example 136, 2-[3-fluoro-5-methoxy-4-(4-pyridyl)phenyl]-1-methyl-6-pyrimidin-2-yl-3,4-dihydro-1H-2,7-naphthyridine] the IC50 [1] was 357 nM.
Work on CC1c2cnc(-c3ncccn3)nc2CCN1c1cc(F)cc(C2CC2)c1 (stereo not drawn) [Example 137, 6-(3-cyclopropyl-5-fluoro-phenyl)-5-methyl-2-pyrimidin-2-yl-7,8-dihydro-5H-pyrido[4,3-d]pyrimidine] yielded an IC50 [1] of 124 nM.
COc1cc(Cl)cc(N2CCc3nc(-c4ncccn4)ncc3C2C)n1 (stereo not drawn) [Example 140, 6-(4-chloro-6-methoxy-2-pyridyl)-5-methyl-2-pyrimidin-2-yl-7,8-dihydro-5H-pyrido[4,3-d]pyrimidine] was tested, and the IC50 [1] was 24 nM.
COc1cc(N2CCc3nc(-c4ncccn4)ncc3C2C)cc(Cl)n1 (stereo not drawn) [Example 141, 6-(2-chloro-6-methoxy-4-pyridyl)-5-methyl-2-pyrimidin-2-yl-7,8-dihydro-5H-pyrido[4,3-d]pyrimidine] showed an IC50 [1] of 113 nM.
COc1cc(F)cc(N2CCc3nc(-c4ncccn4)ncc3C2C)n1 (stereo not drawn) [Example 142, 6-(4-fluoro-6-methoxy-2-pyridyl)-5-methyl-2-pyrimidin-2-yl-7,8-dihydro-5H-pyrido[4,3-d]pyrimidine] was tested, and the IC50 [1] was 40 nM.
Work on CC1c2cnc(-c3ncccn3)nc2CCN1c1cc(F)cc(OCC(F)F)c1 (stereo not drawn) [Example 143, 6-[3-(2,2-difluoroethoxy)-5-fluoro-phenyl]-5-methyl-2-pyrimidin-2-yl-7,8-dihydro-5H-pyrido[4,3-d]pyrimidine] yielded an IC50 [1] of 22 nM.
Work on CC1c2cnc(-c3ncccn3)nc2CCN1c1cc(F)cc(OCC(F)(F)F)c1 (stereo not drawn) [Example 144, 6-[3-fluoro-5-(2,2,2-trifluoroethoxy)phenyl]-5-methyl-2-pyrimidin-2-yl-7,8-dihydro-5H-pyrido[4,3-d]pyrimidine] yielded an IC50 [1] of 48 nM.
CC1c2cnc(-c3ncccn3)nc2CCN1c1cc(F)cc(OCC2CC2)c1 (stereo not drawn) [Example 145, 6-[3-(cyclopropylmethoxy)-5-fluoro-phenyl]-5-methyl-2-pyrimidin-2-yl-7,8-dihydro-5H-pyrido[4,3-d]pyrimidine] was tested, and the IC50 [1] was 14 nM.
With CC1c2cnc(-c3ncccn3)nc2CCN1c1cc(F)cc(OCC(F)F)n1 (stereo not drawn) [Example 148, 6-[6-(2,2-difluoroethoxy)-4-fluoro-2-pyridyl]-5-methyl-2-pyrimidin-2-yl-7,8-dihydro-5H-pyrido[4,3-d]pyrimidine] the IC50 [1] was 17 nM.
With CC1c2cnc(-c3ncccn3)nc2CCN1c1cc(F)nc(OCC(F)F)c1 (stereo not drawn) [Example 150, 6-[2-(2,2-difluoroethoxy)-6-fluoro-4-pyridyl]-5-methyl-2-pyrimidin-2-yl-7,8-dihydro-5H-pyrido[4,3-d]pyrimidine] the IC50 [1] was 49 nM.
Compound CC1c2cnc(-c3ncccn3)nc2CCN1c1cc(OCC2CCOCC2)cc(F)n1 (stereo not drawn) [Example 151, 6-[6-fluoro-4-(tetrahydropyran-4-ylmethoxy)-2-pyridyl]-5-methyl-2-pyrimidin-2-yl-7,8-dihydro-5H-pyrido[4,3-d]pyrimidine] has an IC50 [1] of 12 nM.
CC1c2cnc(-c3ncccn3)nc2CCN1c1cc(OCC2CC2)cc(F)n1 (stereo not drawn) [Example 152, 6-[4-(cyclopropylmethoxy)-6-fluoro-2-pyridyl]-5-methyl-2-pyrimidin-2-yl-7,8-dihydro-5H-pyrido[4,3-d]pyrimidine] was tested, and the IC50 [1] was 11 nM.
Work on COc1cc(F)nc(N2CCc3nc(-c4ccccn4)ncc3C2C)c1 (stereo not drawn) [Example 153, 6-(6-fluoro-4-methoxy-2-pyridyl)-5-methyl-2-(2-pyridyl)-7,8-dihydro-5H-pyrido[4,3-d]pyrimidine] yielded an IC50 [1] of 22 nM.
In the case of CC1c2cnc(-c3ncccn3)nc2CCN1c1cc(OCC2CCOC2)cc(F)n1 (stereo not drawn) [Example 154, 6-[6-fluoro-4-(tetrahydrofuran-3-ylmethoxy)-2-pyridyl]-5-methyl-2-pyrimidin-2-yl-7,8-dihydro-5H-pyrido[4,3-d]pyrimidine], the IC50 [1] is reported as 7 nM.
In the case of CC1c2cnc(-c3ncccn3)nc2CCN1c1cc(OCC2CN(S(C)(=O)=O)C2)cc(F)n1 (stereo not drawn) [Example 159, 6-[6-fluoro-4-[(1-methylsulfonylazetidin-3-yl)methoxy]-2-pyridyl]-5-methyl-2-pyrimidin-2-yl-7,8-dihydro-5H-pyrido[4,3-d]pyrimidine], the IC50 [1] is reported as 56 nM.
Work on CC(=O)N1CC(COc2cc(F)nc(N3CCc4nc(-c5ncccn5)ncc4C3C)c2)C1 (stereo not drawn) [Example 160, 1-[3-[[2-fluoro-6-(5-methyl-2-pyrimidin-2-yl-7,8-dihydro-5H-pyrido[4,3-d]pyrimidin-6-yl)-4-pyridyl]oxymethyl]azetidin-1-yl]ethanone] yielded an IC50 [1] of 196 nM.
COc1cc(C)nc(N2CCc3nc(-c4ncccn4)ncc3C2C)c1 (stereo not drawn) [Example 161, 6-(4-methoxy-6-methyl-2-pyridyl)-5-methyl-2-pyrimidin-2-yl-7,8-dihydro-5H-pyrido[4,3-d]pyrimidine] was tested, and the IC50 [1] was 95 nM.
With CC1c2cnc(-c3ncccn3)nc2CCN1c1cc(OCCCOCC(=O)O)cc(F)n1 (stereo not drawn) [Example 162, 2-[3-[[2-fluoro-6-(5-methyl-2-pyrimidin-2-yl-7,8-dihydro-5H-pyrido[4,3-d]pyrimidin-6-yl)-4-pyridyl]oxy]propoxy]acetic acid] the IC50 [1] was 1780 nM.
